Where a name gives a salt, the structure may show the parent alone. Read-outs that look alike come from different tables or passages of the source.

Series [1] relates to RML-infected hemizygous Tg37+/- mice. Particulars: mouse, in vivo; cited from earlier work.
In the next series the test system is scrapie-infected mice. Particulars: cited from earlier work.
For series [2], the system named is 263K scrapie-infected hamster cerebellar tissue slices. Type of series: cell-based, golden hamster. The note with it: for PrPSc levels, comparison of c-Abl tyrosine kinase inhibitors: 10 and 20 μM for 5 weeks (Supplementary Figure S3).
For series [3] the following is noted: hamster, in vivo; for T1/2: male, golden.
A further series can be described thus: in vivo. Particulars: male, hamster; for half-life / Tmax: po; for half-life: T1/2; for Kp: B/P ratio (%).
Series [4] concerns 263K scrapie strain. Type of series: in vivo, golden hamster. The note with it: 100 mg/kg IG.
Series [5] deals with 263K scrapie strain. Type of series: in vivo, golden hamster.
Series [6] relates to ZW13-2, ZW13-2-22L and ZW13-2-139A cells.
For the next series, the system named is ZW13-2-22L cells. In kind it is cell-based, mouse.
Series [7] has as its system 22L scrapie-infected Tga20 cerebellar tissue slices. In kind it is cell-based, Tga20 mouse. The note with it: 25 μM, slices cultured for 3 or 5 weeks.
The subject of a further series is ZW13-2-139A cells. Type of series: cell-based, mouse.
The conditions of series [8]: mouse, in vivo; cited from earlier work.

As to `O=C(CC(=O)c1ccccc1)c1ccccc1` [dibenzoylmethane], the survival result in [1] is recorded as “significantly prolong survival without reducing the PrP^Sc levels”.
`Cc1ccc(NC(=O)c2ccc(CN3CCN(C)CC3)cc2)cc1Nc1nccc(-c2cccnc2)n1` [imatinib, imatinib mesylate]: the “survival times of scrapie-infected mice” value with scrapie-infected mice is “prolongs the survival times of scrapie-infected mice”. In addition, the “PrPSc levels, comparison of c-Abl tyrosine kinase inhibitors” value in series [2] is on record as “had no effect”.
As a reminder, the half-life is the time needed for the level to fall by half in the phase considered. For `Cc1cn(-c2cc(NC(=O)c3ccc(C)c(Nc4nccc(-c5cccnc5)n4)c3)cc(C(F)(F)F)c2)cn1` [nilotinib, nilotinib hydrochloride monohydrate], the T1/2 in [3] (po, 60 mg/kg) came out at 1.4 ± 0.3 h; in series [3] (po, 100 mg/kg), 1.4 ± 0.7 h. Also, the “PrPSc levels, comparison of c-Abl tyrosine kinase inhibitors” value in series [2] is given as “reduced PrP^Sc levels”. In addition, the half-life was 1 ± 0.4 h in “in vivo” (golden, 60 mg/kg) and 1.2 ± 0.2 h in the series “in vivo” (golden, 100 mg/kg).
Broadly, the Tmax is the time at which the peak concentration occurs. Take `Cc1cn(-c2cc(NC(=O)c3ccc(C)c(Nc4nccc(-c5cnccn5)n4)c3)cc(C(F)(F)F)c2)cn1` [radotinib, Radotinib hydrochloride]: the “PrPSc levels in the brains, Western blot” value with 263K scrapie strain [4] (hamsters sacrificed at 146 dpi) was “markedly decreased”; with 263K scrapie strain [4] (hamsters that died naturally), “also high”. Also, in the series with 263K scrapie strain [4] (sacrificed on 146 dpi, compared to control-treated infected hamsters), the “total PrP and PK-resistant PrPSc levels in the brains, immunohistochemical staining” value is “definitely lower”. Moreover, the “survival time, range” value with 263K scrapie strain [5] (30 mg/kg IG, n = 8) is reported as 140–154 dpi; with 263K scrapie strain [5] (60 mg/kg IG, n = 8) it was 112–208 dpi; in the series on 263K scrapie strain [5] (100 mg/kg IG for the initial 10 weeks, n = 10), 112–191 dpi; with 263K scrapie strain [5] (100 mg/kg IG once a day, 6 days a week, n = 12) it was 124–223 dpi; with 263K scrapie strain [5] (100 mg/kg IG started 4 weeks postinoculation, n = 9), 126–210 dpi; in the series with 263K scrapie strain [5] (100 mg/kg IG started 8 weeks postinoculation, n = 9), 114–181 dpi. Besides, the “survival time, range” value in the series with 263K scrapie strain [5] (200 mg/kg IG, n = 8) is 112–210 dpi. Further, the mean survival time is listed as 145.1 ± 5.3 dpi with 263K scrapie strain [5] (30 mg/kg IG, n = 8, p = 0.05848); 161.0 ± 34.8 dpi with 263K scrapie strain [5] (60 mg/kg IG, n = 8, p = 0.03022); 158.0 ± 31.9 dpi in the series on 263K scrapie strain [5] (100 mg/kg IG started 4 weeks postinoculation (4W-post), n = 9, p = 0.02333); 146.9 ± 23.7 dpi with 263K scrapie strain [5] (100 mg/kg IG started 8 weeks postinoculation (8W-post), n = 9, p = 0.08559); 157.0 ± 33.9 dpi in the series on 263K scrapie strain [5] (200 mg/kg IG, n = 8, p = 0.01944). In addition, the survival time was found to be 149.6 ± 25.3 dpi with 263K scrapie strain [5] (100 mg/kg IG for the initial 10 weeks (10W-initial), n = 10, p = 0.0446); 159.3 ± 28.6 dpi in the series with 263K scrapie strain [5] (100 mg/kg IG once a day, 6 days a week, n = 12, p = 0.00217 vs vehicle (135.1 ± 9.9)); 155 ± 50 dpi in the series on 263K scrapie strain [5] (intraperitoneal route, 10 mg/kg/day 6 days a week, n = 6, no significant difference). In the series on 263K scrapie strain [5] (100 mg/kg intragastrically, nontreated 135 ± 9.9 days), the “survival times (abstract)” value amounted to 159 ± 28.6 days. For the same molecule, the cell viability result in [6] is recorded as “No decrease in viability”. In addition, in series [3], the “blood–brain barrier crossing in hamsters” value was “effectively crosses the BBB in hamsters”. In addition, in [3] (po, 100 mg/kg), the “Tmax Median (range, h)” value is 6.0 ± 1.15 (6.0–8.0) h. The PrPSc levels entry with ZW13-2-22L cells and with ZW13-2-139A cells was “mild reduction in PrP^Sc levels” in each case. Also, the PrPSc propagation result in series [2] (0–40 μM for 5 weeks) is reported as “reduced PrP^Sc propagation in 263K scrapie-infected hamster cerebellar tissue slices in a dose-dependent manner”; in series [7] it was “reduced PrP^Sc propagation”. In series [2] (10 μM, final 2 weeks of 5-week culture), the “PrPSc propagation, treatment in the final 2 weeks” value is “effectively inhibited PrP^Sc propagation”. For the same molecule, the “PrPSc propagation, one week of treatment” value in series [2] (10 μM, final one week of 5-week culture) is “did not reduce PrP^Sc propagation”. For the same molecule, the “PrPSc levels, comparison of c-Abl tyrosine kinase inhibitors” value in series [2] was “reduced PrP^Sc accumulation”. For the same molecule, in series [2] (10–40 μM, 2 weeks without drug then final 3 weeks with radotinib), the “levels of PrPSc, later treatment” value is “dramatically reduced the levels of PrP^Sc”. Also, in series [8], the “blood–brain barrier crossing” value is listed as “effectively crosses the blood–brain barrier”. In addition, the Kp in the series “in vivo” (golden, 60 mg/kg, AUClast) was 0.137 ± 0.021; in the series “in vivo” (golden, 60 mg/kg, Cmax) it was 0.137 ± 0.023; in the series “in vivo” (golden, 100 mg/kg, AUClast), 0.232 ± 0.155; in “in vivo” (golden, 100 mg/kg, Cmax), 0.149 ± 0.014; in “in vivo” (60 mg/kg, AUClast), 0.137 ± 0.021; in “in vivo” (100 mg/kg, AUClast), 0.232 ± 0.155. Also, the Tmax is 6 h in “in vivo” (golden, 60 mg/kg) and 6 h in “in vivo” (golden, 100 mg/kg). In the series “in vivo” (golden, 100 mg/kg), this molecule gave a half-life of 3.3 h.
For `O=c1n(CCCN2CCN(c3cccc(Cl)c3)CC2)nc2ccccn12` [trazodone hydrochloride], the survival result in series [1] is on record as “significantly prolong survival without reducing the PrP^Sc levels”.

The values are drawn from publication PMC10419185 (International Journal of Molecular Sciences, 2023).
